According to ChEMBL document CHEMBL5131525, “Novel CFTR Modulators for Treating Cystic Fibrosis” (ACS Med Chem Lett, 2022):

These molecules were tested against Cystic fibrosis transmembrane conductance regulator (Homo sapiens, UniProt P13569, F508DEL) (assay: Modulation of CFTR F508 deletion mutant expressed in HBE cells assessed as change in short circuit current incubated for 18 to 24 hrs in presence of forskolin, amiloride and human serum by voltage-clamp based chamber assay).
Format: cell-based

Chain of Cystic fibrosis transmembrane conductance regulator (P13569 as listed by the source): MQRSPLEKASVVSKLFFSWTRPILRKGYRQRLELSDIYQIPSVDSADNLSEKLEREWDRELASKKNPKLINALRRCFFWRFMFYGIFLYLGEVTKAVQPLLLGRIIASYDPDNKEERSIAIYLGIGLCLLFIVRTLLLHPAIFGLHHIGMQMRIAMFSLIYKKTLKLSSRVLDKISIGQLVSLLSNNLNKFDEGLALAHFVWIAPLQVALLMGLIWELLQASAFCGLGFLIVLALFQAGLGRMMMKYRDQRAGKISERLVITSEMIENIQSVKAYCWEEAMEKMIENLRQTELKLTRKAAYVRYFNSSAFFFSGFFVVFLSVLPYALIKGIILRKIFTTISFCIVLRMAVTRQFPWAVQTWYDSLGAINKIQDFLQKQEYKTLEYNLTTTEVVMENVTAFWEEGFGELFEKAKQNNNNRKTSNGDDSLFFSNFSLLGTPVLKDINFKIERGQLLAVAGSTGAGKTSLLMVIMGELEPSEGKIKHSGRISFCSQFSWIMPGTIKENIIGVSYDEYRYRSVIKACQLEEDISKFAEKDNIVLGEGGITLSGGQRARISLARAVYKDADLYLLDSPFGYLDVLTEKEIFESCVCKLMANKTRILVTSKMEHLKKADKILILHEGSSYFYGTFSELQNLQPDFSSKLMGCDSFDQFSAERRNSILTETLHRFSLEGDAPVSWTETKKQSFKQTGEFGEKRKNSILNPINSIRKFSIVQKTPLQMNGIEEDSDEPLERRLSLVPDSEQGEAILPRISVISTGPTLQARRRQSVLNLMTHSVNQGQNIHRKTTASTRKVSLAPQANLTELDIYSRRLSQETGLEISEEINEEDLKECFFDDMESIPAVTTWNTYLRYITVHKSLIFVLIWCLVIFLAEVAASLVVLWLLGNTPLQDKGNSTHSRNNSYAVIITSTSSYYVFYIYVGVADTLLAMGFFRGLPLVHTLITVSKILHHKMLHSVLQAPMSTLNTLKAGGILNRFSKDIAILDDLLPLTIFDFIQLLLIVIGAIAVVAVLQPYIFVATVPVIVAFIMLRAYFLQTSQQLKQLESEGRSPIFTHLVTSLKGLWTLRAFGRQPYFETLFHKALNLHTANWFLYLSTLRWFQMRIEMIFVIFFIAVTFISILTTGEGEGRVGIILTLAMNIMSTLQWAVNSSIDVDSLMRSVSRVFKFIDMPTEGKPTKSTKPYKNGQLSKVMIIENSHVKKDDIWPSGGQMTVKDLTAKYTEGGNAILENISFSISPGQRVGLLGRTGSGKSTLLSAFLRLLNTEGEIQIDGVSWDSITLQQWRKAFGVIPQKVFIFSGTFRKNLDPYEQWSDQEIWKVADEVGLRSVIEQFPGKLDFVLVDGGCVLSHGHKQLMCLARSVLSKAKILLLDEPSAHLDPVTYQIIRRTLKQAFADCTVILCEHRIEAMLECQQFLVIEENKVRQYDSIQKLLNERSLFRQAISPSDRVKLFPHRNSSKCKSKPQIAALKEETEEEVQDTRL

EC50, < 500 nM:
[2H]C1CC[C@@H](C)Oc2nc(c(N)cc2C(F)(F)F)C2=NN=C(O2)[C@@](O)(C(F)(F)F)CC1[2H] (stereo partly specified), C[C@H]1CCCCC[C@](O)(C(F)(F)F)C2=NN=C(O2)c2nc(c(C(F)(F)F)cc2N)O1, Nc1cc(C(F)(F)F)c2nc1-c1nnc(o1)C(O)(C(F)(F)F)CCCCCCO2 (stereo unspecified), Nc1cc(C(F)(F)F)c2nc1-c1nnc(o1)[C@@](O)(C(F)(F)F)CCCCCCS2, Nc1cc(C(F)(F)F)c2nc1-c1nnc(o1)[C@@](O)(C(F)(F)F)CCCCC[C@H](CO)O2, CC1(C)CCCC[C@](O)(C(F)(F)F)C2=NN=C(O2)c2nc(c(C(F)(F)F)cc2N)OC1
